Key:
Test in all cases: relative viability (nuclei count vs DMSO), 5 days (fraction); higher = more cells survive
[1] = compound: COc1cc2c(Oc3ccc4[nH]c(C)cc4c3F)ncnc2cc1OCCCN1CCCC1 [Cediranib]
Summary of the method: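 After an overnight hold at 37 °C, lung cancer cell lines in 1536-well plates were pinned with five library-drug doses (not always all listed), each √10 from the next, on vehicle-anchored plates. The cells stayed 5 days without fresh medium, then a one-step fix, permeabilisation and Hoechst stain preceded 4× imaging and MetaXpress nuclear counts. A plate passed only with control CV under 25% and at least one doubling. Viability is the median, over plates, of treated-well nuclei relative to vehicle-well nuclei.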

[2] = compound: COc1cc2c(Oc3ccc4[nH]c(C)cc4c3F)ncnc2cc1OCCCN1CCCC1 [Cediranib] + O=C(c1cc(Cc2n[nH]c(=O)c3ccccc23)ccc1F)N1CCN(C(=O)C2CC2)CC1 [Olaparib] (partner 8 µM)
Summary of the method: (§1)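 Each reported value is a median over duplicate plates. It expresses relative viability: treated-well nuclei count divided by vehicle-well nuclei count. Lung cancer cell lines in 1536-well plates were dosed by pin tool a day after seeding, alone with one drug or with a fixed anchor-drug dose plus five library-drug doses (not always all listed) in √10 steps, and nuclei were counted after 5 days.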

[3] = compound: O=C(C[C@H]1NCCC[C@@H]1O)Cn1cnc2cc(Br)c(Cl)cc2c1=O (racemic) [Halofuginone] + CS(=O)(=O)N1CCN(Cc2cc3nc(-c4cccc5[nH]ncc45)nc(N4CCOCC4)c3s2)CC1 [Pictilisib] (partner 1 µM)
Summary of the method: as §1

[4] = compound: O=C(C[C@H]1NCCC[C@@H]1O)Cn1cnc2cc(Br)c(Cl)cc2c1=O (racemic) [Halofuginone] + Cc1cc(Nc2cc(N3CCN(C)CC3)nc(Sc3ccc(NC(=O)C4CC4)cc3)n2)n[nH]1 [Tozasertib] (partner 0.1 µM)
Summary of the method: as §1

| Cell Line | relative viability ([1]; 0.04 µM) | relative viability ([1]; 0.1265 µM) | relative viability ([1]; 0.4 µM) | relative viability ([1]; 1.265 µM) | relative viability ([1]; 4 µM) | relative viability ([2]; first compound 0.04 µM) | relative viability ([2]; first compound 0.1265 µM) | relative viability ([2]; first compound 0.4 µM) | relative viability ([2]; first compound 1.265 µM) | relative viability ([2]; first compound 4 µM) | relative viability ([3]; first compound 0.001 µM) | relative viability ([3]; first compound 0.003162 µM) | relative viability ([3]; first compound 0.01 µM) | relative viability ([3]; first compound 0.03162 µM) | relative viability ([3]; first compound 0.1 µM) | relative viability ([4]; first compound 0.001 µM) | relative viability ([4]; first compound 0.003162 µM) | relative viability ([4]; first compound 0.01 µM) | relative viability ([4]; first compound 0.03162 µM) | relative viability ([4]; first compound 0.1 µM) |
| --- | --- | --- | --- | --- | --- | --- | --- | --- | --- | --- | --- | --- | --- | --- | --- | --- | --- | --- | --- | --- |
| LOU-NH91 | 0.967 | 1.15 | 0.932 | 0.878 | 0.958 | 0.972 | 0.936 | 0.88 | 0.908 | 0.86 | 0.574 | 0.51 | 0.503 | 0.52 | 0.514 | 0.7 | 0.791 | 0.642 | 0.705 | 0.576 |
| LU99A | 0.982 | – | 0.976 | 0.845 | 0.985 | 0.236 | – | 0.244 | 0.267 | 0.314 | 0.405 | 0.361 | 0.294 | 0.308 | 0.242 | 0.277 | 0.295 | 0.271 | 0.296 | 0.36 |
| LXF-289 | 1.06 | 0.778 | 0.928 | 1.01 | 1.03 | 1.09 | – | 1.03 | 1 | 1.15 | 0.748 | 0.859 | 0.795 | 0.813 | 0.495 | 0.196 | 0.199 | 0.245 | 0.173 | 0.178 |
| NCI-H23 | 0.882 | 0.75 | 0.847 | 0.844 | 1 | 0.373 | 0.326 | 0.277 | 0.323 | 0.342 | 0.507 | 0.518 | 0.47 | 0.415 | 0.296 | 0.387 | 0.399 | 0.383 | 0.387 | 0.265 |
| NCI-H322M | 0.929 | 1.18 | 0.871 | 0.819 | 1.02 | 0.857 | 0.757 | 0.618 | 0.783 | 0.762 | 0.484 | 0.514 | 0.489 | 0.486 | 0.502 | 0.461 | 0.468 | 0.462 | 0.467 | 0.258 |
| NCI-H358 | 0.945 | 1.13 | 0.893 | 0.9 | 0.899 | 0.659 | 0.66 | 0.503 | 0.64 | 0.666 | 0.364 | 0.351 | 0.359 | 0.245 | 0.196 | 0.107 | 0.0894 | 0.095 | 0.0812 | 0.0809 |
| NCI-H441 | 1.04 | 0.985 | 0.884 | 1.03 | 1.09 | 0.564 | 0.605 | 0.597 | 0.702 | 0.575 | 0.482 | 0.466 | 0.489 | 0.415 | 0.385 | 0.737 | 0.792 | 0.568 | 0.57 | 0.256 |
| NCI-H460 | 1.02 | 0.98 | 0.957 | 0.984 | 1.05 | 0.53 | 0.411 | 0.403 | 0.424 | 0.362 | 0.393 | 0.345 | 0.336 | 0.345 | 0.299 | 0.611 | 0.572 | 0.438 | 0.444 | 0.19 |
| NCI-H520 | 1.12 | 0.747 | 0.917 | 0.804 | 0.865 | 0.365 | 0.353 | 0.355 | 0.298 | 0.3 | 0.301 | 0.295 | 0.281 | 0.243 | 0.181 | 0.457 | 0.457 | 0.461 | 0.467 | 0.322 |
| NCI-H596 | 1.06 | 0.959 | 0.935 | 0.907 | 1.1 | 0.798 | 0.8 | 0.721 | 0.99 | 0.731 | 0.423 | 0.431 | 0.388 | 0.423 | 0.3 | 1.04 | 0.871 | 0.953 | 0.543 | 0.303 |
| NCI-H647 | 1.06 | 0.911 | 0.831 | 0.895 | 1.01 | 0.772 | 0.652 | 0.501 | 0.551 | 0.437 | 0.543 | 0.425 | 0.459 | 0.418 | 0.33 | 0.441 | 0.324 | 0.267 | 0.171 | 0.0868 |
| NCI-H650 | 0.892 | 0.787 | 0.961 | 0.87 | 0.996 | 0.331 | 0.282 | 0.423 | 0.405 | 0.583 | 0.956 | 0.953 | 1.02 | 0.801 | 0.566 | 0.912 | 0.772 | 0.709 | 0.67 | 0.426 |
| NCI-H661 | 0.988 | 0.98 | 0.974 | 0.957 | 1.1 | 0.763 | 0.785 | 0.713 | 0.703 | 0.817 | 0.496 | 0.355 | 0.365 | 0.408 | 0.444 | 0.365 | 0.35 | 0.322 | 0.33 | 0.391 |
| NCI-H727 | 0.631 | 0.824 | 0.906 | 0.935 | 0.989 | 0.656 | 0.679 | 0.684 | 0.728 | 0.73 | 0.428 | 0.444 | 0.359 | 0.421 | 0.194 | 0.706 | 0.778 | 0.578 | 0.615 | 0.33 |
| NCI-H838 | 1.02 | 0.965 | 0.916 | 0.827 | 1.06 | 0.786 | 0.764 | 0.734 | 0.722 | 0.756 | 0.478 | 0.481 | 0.42 | 0.37 | 0.134 | 0.257 | 0.315 | 0.256 | 0.214 | 0.212 |
| NCI-H1355 | 0.944 | 1.04 | 0.898 | 0.944 | 1.06 | 0.689 | 0.727 | 0.723 | 0.787 | 0.784 | 0.444 | 0.424 | 0.458 | 0.501 | 0.376 | 0.667 | 0.533 | 0.538 | 0.527 | 0.488 |

Reference: the supplement of paper PMC10307832
